Reference: patent US7601750B2, “Small molecule inhibition of a PDZ-domain interaction” (The Regents of the University of California, priority 2003, dated 2009)

What was measured:
[1] = test system: human lung cancer (H1073) cells; test: Growth suppression and apoptosis in lung cancer cells (other tests); format: cell-based; settings: 100 μM, after 4 days
[2] = test system: human melanoma (LOX) cells; test: Growth suppression and apoptosis in melanoma cells (other tests); format: cell-based; settings: 100 μM, after 4 days
H513 = test: Apoptotic effects in cancer cells overexpressing Dvl, H513; format: cell-based, human; settings: for apoptosis, %: H513, 1 day
Protocol: (§1) Compounds were tested for apoptotic effects to represent the inhibitory effects of compounds on interaction between the PDZ domain of the Dishevelled (Dlv) protein and the Fz protein (Wnt receptor). Cell lines H513 and H1703 were utilized, with test compounds (compound numbers from Tables 1 and 2) being applied at 0 (control), 10 μM and 100 μM.

[3] = test system: human lung cancer (H460) cells; test: Growth suppression and apoptosis in lung cancer H460 cells (other tests); format: cell-based; settings: 100 μM, after 4 days
[4] = test system: Wnt/beta-Catenin signaling; test: Inhibition of Wnt/beta-Catenin signaling in A549; format: cell-based; settings: human lung cancer cell line A549
[5] = test system: Wnt/beta-Catenin signaling; test: Inhibition of Wnt/beta-Catenin signaling in H1703; format: cell-based; settings: human lung cancer cell line H1703
[6] = test system: human Dishevelled (Dvl) protein; test: Binding to Dishevelled protein
H1703 = test: Apoptotic effects in cancer cells overexpressing Dvl, H1703; format: cell-based, human
Protocol: as §1

binding to human Dishevelled (Dvl) protein [6]	SMILES	suppress cancer cell growth and induce apoptosis, % of the population [1]	suppress cancer cell growth and induce apoptosis, % of the population [2] [%]	apoptosis, % (H513; 10 μM) [%]	apoptosis, % (H513; 100 μM) [%]	suppress cancer cell growth and induce apoptosis, % of the population (H513; 100 μM, after 4 days, human mesothelioma (H513) cells)	suppress cancer cell growth and induce apoptosis, % of the population [3]	inhibition of Wnt/beta-Catenin signaling [4]	inhibition of Wnt/beta-Catenin signaling [5]	apoptosis, % (H1703; 10 μM, H1703, 1 day) [%]	apoptosis, % (H1703; 100 μM, H1703, 1 day) [%]	apoptosis, % (H1703; 10 μM, H1703, 4 days) [%]	apoptosis, % (H1703; 100 μM, H1703, 4 days) [%]
bind	CCCCCc1c(CO)c2cc(C)c(C(=O)[O-])cc2n1CCc1ccccc1.[Na+] [Compound 6, Sodium [3-hydroxymethyl-2-(1-pentyl)-1-(2-phenylethyl)-5-methyl]indole-6-carboxylate]	up to 85.2%	35	14.3	52.5	over 50%	about 20%	inhibit	inhibit	8.2	34.0	–	–
–	CCCCC(O)c1cc2cc(C)c(C(=O)O)cc2n1CCc1ccccc1 (stereo not shown) [Compound 1, [2-(1-Hydroxypentyl)-5-methyl-1-(2-phenylethyl)]indole-6-carboxylic acid]	–	–	–	–	–	–	–	–	–	–	6.2	38.7
